Laboratory results reported in ChEMBL document CHEMBL5260827, “Fructose-1,6-bisphosphatase inhibitors: A new valid approach for management of type 2 diabetes mellitus” (Eur J Med Chem, 2017).
One block for each molecule: values may come before it.

What was measured:
[1] = molecular target: T1, Fructose-1,6-bisphosphatase 1 (Homo sapiens, UniProt P09467); assay: biochemical
T1 sequence (P09467 whole entry): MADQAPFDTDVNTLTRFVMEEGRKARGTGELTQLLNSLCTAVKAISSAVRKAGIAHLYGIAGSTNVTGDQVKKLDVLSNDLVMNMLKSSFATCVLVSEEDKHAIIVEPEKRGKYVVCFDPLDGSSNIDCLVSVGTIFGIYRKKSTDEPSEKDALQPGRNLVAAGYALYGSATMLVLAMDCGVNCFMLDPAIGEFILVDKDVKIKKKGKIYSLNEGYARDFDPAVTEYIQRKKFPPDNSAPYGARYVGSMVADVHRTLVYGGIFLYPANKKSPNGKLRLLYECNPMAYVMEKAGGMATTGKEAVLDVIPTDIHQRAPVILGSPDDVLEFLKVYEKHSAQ

[2] = molecular target: T1, Fructose-1,6-bisphosphatase 1; assay: Inhibition of human liver FBPase by spectrophotometric method; type: tissue-based
[3] = Inhibition of Cynomolgus monkey FBPase; parameters: species or system Macaca fascicularis
Rattus norvegicus = assay: Hypoglycemic activity in ZDF rats assessed as reduction in blood glucose level at 10 to 300 mg/kg, po; type: functional; settings: dose 10-300 mg/kg
[4] = Tmax in Cynomolgus monkey at 10 mg/kg, po upto 24 hrs by LC/MS/MS analysis; type: ADME, organism-based, Macaca fascicularis; settings: in vivo
[5] = Cmax in Cynomolgus monkey at 10 mg/kg, po measured after 3 hrs by LC/MS/MS analysis; type: ADME, organism-based, Macaca fascicularis; parameters: dose 10 mg/kg, time 3 hrs, route po; settings: in vivo
[6] = Inhibition of rat FBPase
[7] = Half life in Cynomolgus monkey at 10 mg/kg, po; type: ADME, organism-based, Macaca fascicularis; settings: in vivo
Hepatocyte = assay: Inhibition of glucose production in human hepatocyte assessed as reduction in […]; type: functional, cell-based
[8] = Oral bioavailability in cynomolgus monkey at 10 mg/kg; type: ADME, organism-based, Macaca fascicularis; settings: in vivo
Mus musculus = assay: Hypoglycemic activity in db/db mouse assessed as reduction in blood glucose level at 300 mg/kg, po administered for 5 days; type: functional; settings: time 5 day
[9] = molecular target: T1, Fructose-1,6-bisphosphatase 1; assay: Inhibition of human liver FBPase
[10] = molecular target: T1, Fructose-1,6-bisphosphatase 1; assay: Inhibition of human liver FBPase expressed in Escherichia coli BL21 (DE3) measured after 48 hrs by spectrophotometry analysis

Description for Oryctolagus cuniculus: Binding affinity to recombinant rabbit FBPase expressed in Escherichia coli assessed as maximal activity

Structure (SMILES): CSc1nc(N)c2nc(-c3ccc(P(=O)(O)O)o3)n(CC(C)C)c2n1
IC50 [1]: 700000 nM

Structure (SMILES): CCCC(C)C(=O)c1sc(N)nc1-c1ccc(P(=O)(O)O)o1 (stereo unspecified)
IC50 [2]: 11 nM

Structure (SMILES): O=P(O)(O)OC[C@H]1O[C@H](COP(=O)(O)O)[C@@H](O)[C@@H]1O
IC50 [2]: 2000 nM

Structure (SMILES): CC(C)(C)C(=O)c1sc(N)nc1-c1ccc(P(=O)(O)O)o1
IC50 [3]: 121 nM | Activity (Rattus norvegicus): 200 mg/dL | Tmax [4]: 3.3 h | Cmax [5]: 2100 ng/mL | IC50 [6]: 189 nM | half-life [7]: 7.6 h | EC50 (Hepatocyte): 140 nM | bioavailability [8]: 52% | Activity (Mus musculus): 350 mg/dL

Structure (SMILES): CSc1nc(N)c2nc(-c3ccc(P(=O)(O)O)o3)n(CC(C)(C)C)c2n1
IC50 [2]: 700 nM

Structure (SMILES): N#Cc1ccc(C(C(=O)NCCc2ccc(O)cc2)N2C(=O)C3Cc4ccc(O)cc4CN3C(=O)C2CC2CCCCC2)cc1 (stereo unspecified)
IC50 [2]: 370 nM

Structure (SMILES): CC(C)Cn1c(C2CCC(P(=O)(O)O)O2)nc2c(N)c(F)cc(CCBr)c21 (stereo unspecified)
IC50 [2]: 34 nM

Structure (SMILES): COc1ccc(CC(=O)Nc2cccc(-c3nnc(-c4ccc(C)cc4)o3)c2)cc1OC
IC50 [9]: 4510 nM

Structure (SMILES): CC1=CC=CN2C(CC(C)C)C(c3ccc(P(=O)(O)O)o3)=NC12 (stereo unspecified)
IC50 [2]: 1600 nM

More lines, now with the values ahead:

IC50 [2]: 36000 nM
Structure (SMILES): CC1SC(=O)NN=C1c1ccc2[nH]c(-c3ccc(-n4ccnc4)cc3)nc2c1 (stereo unspecified)

IC50 [9]: 15400 nM
Structure (SMILES): COc1ccc(CC(=O)Nc2cccc(-c3nnc(-c4cccc(Cl)c4)o3)c2)cc1OC

Km (Oryctolagus cuniculus): 2.7 µM
Structure (SMILES): CCOc1cc2ncnc(Nc3cccc(Cl)c3)c2cc1OCC

IC50 [10]: 32 nM
Structure (SMILES): COC(=O)c1ccc(S(=O)(=O)n2cccc2)cc1
